Source: patent US7592436B2, “Gene encoding a protein having aurone synthesis activity” (International Flower Developments Proprietary Limited, priority 1998, dated 2009)

How the values were obtained:
tyrosinase = assay: Aurone synthesis activity of tyrosinase; type: biochemical, Neurospora; conditions: HPLC
Protocol: After mixing tyrosinase (Sigma catalog no. T7755; 0.04 mg/ml, 10 μl), 0.1 M sodium phosphate buffer (pH 6.5, 335 μl), 9% CHAPS (20 μl) and milli-Q water (20 μl), the mixture was incubated for 10 minutes at 30° C., followed by the addition of tetrahydroxychalcone (THC, 4.3 mM in ethanol, 15 μl), stirring immediately and reacting for 30 minutes at 30° C. After reaction, 100 μl of reaction stopping solution (10% trifluoroacetate solution containing 90% acetonitrile) was added to the reaction mixture to stop the reaction, followed by HPLC analysis. Analysis was performed in the same manner as described in Example 3. Water was used instead of tyrosinase as a control.
In addition, the reaction was carried out under the same conditions using pentahydroxychalcone (PHC) instead of THC as a substrate, and using 0.116 M sodium citrate phosphate buffer (pH 5.4) as a buffer. Similarly, water was used instead of tyrosinase as a control.

aurone synthase = assay: Measurement of aurone synthase activity (HPLC); type: biochemical, snapdragon; conditions: for Conversion of substrate to aureusidin by purified aurone synthase: product confirmed by HPLC analysis
Protocol: The reaction was started by adding 5 μl of THC, having an absorbance of 462 at 366 nm in ethanol, to 50 μl of 1 M sodium acetate buffer (pH 5.0) and 350 μl of crude enzyme solution diluted with water. After allowing to react for 1 hour at 30° C., and adding 100 μl of an aqueous solution of 90% (v/v) acetonitrile containing 1% (v/v) TFA to stop the reaction, activity was measured by HPLC. The crude enzyme solution in each purification step described later in Example 4 was measured.
The YMC J'Sphere ODS M80 column (4.6×150 mm) was used and the flow rate was set at 0.7 ml/min. Using a 0.1% aqueous solution of TFA as solvent A, and a 90% aqueous solution of acetonitrile containing 0.1% TFA as solvent B, a sample was injected into the column, after which the ratio of A:B was held at 7:3 for first 3 minutes, and then changed to 6:4 by a linear concentration gradient for next 10 minutes. This concentration was maintained for 5 minutes. After changing the ratio of A:B to 7:3 for next one minute, this concentration was maintained for 5 minutes.

| Compound | Reaction product formed from substrate by tyrosinase (tyrosinase; 0.116 M sodium citrate phosphate buffer pH 5.4, 30 minutes at 30° C.) | Conversion of substrate to aureusidin by purified aurone synthase (aurone synthase) | Change of enzyme activity on addition (aurone synthase; hydrogen peroxide added) | Reaction product formed from substrate by tyrosinase (tyrosinase; 0.1 M sodium phosphate buffer pH 6.5, 30 minutes at 30° C.) |
| --- | --- | --- | --- | --- |
| O=C(/C=C/c1ccc(O)c(O)c1)c1c(O)cc(O)cc1O [pentahydroxychalcone] | reaction product aureusidin | converts both THC and pentahydroxychalcone to aureusidin | – | – |
| OO [hydrogen peroxide] | – | – | activity increased somewhat | – |
| O=C(/C=C/c1ccc(O)cc1)c1c(O)cc(O)cc1O [THC, tetrahydroxychalcone] | – | converts both THC and pentahydroxychalcone to aureusidin | – | reaction product aureusidin |
